Patent US20240327418A1, “MULTI-TARGET INHIBITOR TARGETING HDAC AND NAD SYNTHESIS AND USE OF MULTI-TARGET INHIBITOR” (OCEAN UNIVERSITY OF CHINA, priority 2021, published 2024)

Tested on: acute myelogenous leukemia cells MV4-11
Assay: GI50 and LC50 by NCI method, MV4-11
Type: cell-based
Conditions: Homo sapiens, 48 hours, Cell Titer-Blue
Description: (§1) The median growth inhibitory concentration (GI50) and median lethal concentration (LC50) were determined by NCI method. Leukemia cell strains MV4-11, HL60, PL21, KASUMI-1, MONO-MAC-1 and NB-4 were cultured in an Iscove's Modified Dulbecco Medium (IMDM) containing 10% fetal bovine serum, were inoculated into a 96-well cell culture plate at a density of 10,000 cells/100 μL and cultured overnight. 6 wells were selected as Tz wells, 0.125 mg/mL Cell Titer-Blue dye was added, and the cells were cultured for 4 hours and then the fluorescence intensity at […] (excitation wavelength/emission wavelength) was read. Compounds of different concentrations were added to the remaining wells, and a 100% control group was set. After 48 hours of cultivation, 0.125 mg/mL Cell Titer-Blue dye was added and the fluorescence intensity at […] was read after 4 hours. The fluorescence intensity of the dosing group was represented by Ti, the fluorescence intensity of the 100% control group was represented by C, and the fluorescence intensity before dosing was represented by Tz.
(§2) If Ti≥Tz, the formula [(Ti−Tz)/(C−Tz)]×100 was used.
(§3) If Ti<Tz, the formula [(Ti−Tz)/Tz]×100 was used.
(§4) The GI50 and LC50 values of some compounds on leukemia cell strains MV4-11, HL60, PL21, KASUMI-1, MONO-MAC-1 and NB-4 are shown in FIG. 1, Table 3, FIG. 2, and Table 4.

Structure (SMILES)	GI50	LC50 (median lethal concentration)
CCCNNC(=O)c1ccc(CNC(=O)c2cc3ccccc3[nH]2)cc1 [LEE15, N-(4-(2-propylhydrazino-1-carbonyl)benzyl)-1H-indole-2-carboxyamide]	37.2 nM	58.1 nM
CCCNNC(=O)c1ccc(CNC(=O)c2cc3cnccc3[nH]2)cc1 [LEE18, N-(4-(2-propylhydrazin-1-carbonyl)benzyl)-1H-pyrrolo[3,2-c]pyridin-2-carboxamide]	23.6 nM	58.1 nM

Tested on: acute myelogenous leukemia cells HL60
Assay: GI50 and LC50 by NCI method, HL60
Type: cell-based
Conditions: not given
Description: as §1, §2, §3, §4

Structure (SMILES)	LC50 values in p53-null cell strain HL60 (in words)
CCCNNC(=O)c1ccc(CNC(=O)c2cc3cnccc3[nH]2)cc1 [LEE18, N-(4-(2-propylhydrazin-1-carbonyl)benzyl)-1H-pyrrolo[3,2-c]pyridin-2-carboxamide]	nanomolar level

Same assay, conditions: Homo sapiens, HL-60; 48 hours, Cell Titer-Blue

Structure (SMILES)	CC50	GI50
CCCNNC(=O)c1ccc(CNC(=O)c2cc3ccccc3[nH]2)cc1 [LEE15, N-(4-(2-propylhydrazino-1-carbonyl)benzyl)-1H-indole-2-carboxyamide]	> 10000 nM	69.5 nM
CCCNNC(=O)c1ccc(CNC(=O)c2cc3cnccc3[nH]2)cc1 [LEE18, N-(4-(2-propylhydrazin-1-carbonyl)benzyl)-1H-pyrrolo[3,2-c]pyridin-2-carboxamide]	649 nM	51.2 nM

Tested on: leukemia cell line PL21
Assay: GI50 and LC50 by NCI method, PL21
Type: cell-based
Conditions: PL-21; 48 hours, Cell Titer-Blue
Description: as §1, §2, §3, §4

Structure (SMILES)	GI50	LC50 (median lethal concentration)
CCCNNC(=O)c1ccc(CNC(=O)c2cc3ccccc3[nH]2)cc1 [LEE15, N-(4-(2-propylhydrazino-1-carbonyl)benzyl)-1H-indole-2-carboxyamide]	65.5 nM	> 10000 nM
CCCNNC(=O)c1ccc(CNC(=O)c2cc3cnccc3[nH]2)cc1 [LEE18, N-(4-(2-propylhydrazin-1-carbonyl)benzyl)-1H-pyrrolo[3,2-c]pyridin-2-carboxamide]	110 nM	2720 nM

Tested on: leukemia cell line KASUMI-1
Assay: GI50 and LC50 by NCI method, KASUMI-1
Type: cell-based
Conditions: Homo sapiens, 48 hours, Cell Titer-Blue
Description: as §1, §2, §3, §4

Structure (SMILES)	GI50	LC50
CCCNNC(=O)c1ccc(CNC(=O)c2cc3ccccc3[nH]2)cc1 [LEE15, N-(4-(2-propylhydrazino-1-carbonyl)benzyl)-1H-indole-2-carboxyamide]	17.5 nM	8410 nM
CCCNNC(=O)c1ccc(CNC(=O)c2cc3cnccc3[nH]2)cc1 [LEE18, N-(4-(2-propylhydrazin-1-carbonyl)benzyl)-1H-pyrrolo[3,2-c]pyridin-2-carboxamide]	21.4 nM	503 nM

Tested on: leukemia cell line MONO-MAC-1
Assay: GI50 and LC50 by NCI method, MONO-MAC-1
Type: cell-based
Conditions: 48 hours, Cell Titer-Blue
Description: as §1, §2, §3, §4

Structure (SMILES)	CC50	GI50
CCCNNC(=O)c1ccc(CNC(=O)c2cc3ccccc3[nH]2)cc1 [LEE15, N-(4-(2-propylhydrazino-1-carbonyl)benzyl)-1H-indole-2-carboxyamide]	> 10000 nM	17.9 nM
CCCNNC(=O)c1ccc(CNC(=O)c2cc3cnccc3[nH]2)cc1 [LEE18, N-(4-(2-propylhydrazin-1-carbonyl)benzyl)-1H-pyrrolo[3,2-c]pyridin-2-carboxamide]	8680 nM	65.7 nM

Tested on: leukemia cell line NB-4
Assay: GI50 and LC50 by NCI method, NB-4
Type: cell-based
Conditions: 48 hours, Cell Titer-Blue; read-out: NB4 GI50
Description: as §1, §2, §3, §4

Structure (SMILES)	GI50
CCCNNC(=O)c1ccc(CNC(=O)c2cc3ccccc3[nH]2)cc1 [LEE15, N-(4-(2-propylhydrazino-1-carbonyl)benzyl)-1H-indole-2-carboxyamide]	31.9 nM
CCCNNC(=O)c1ccc(CNC(=O)c2cc3cnccc3[nH]2)cc1 [LEE18, N-(4-(2-propylhydrazin-1-carbonyl)benzyl)-1H-pyrrolo[3,2-c]pyridin-2-carboxamide]	16.5 nM

Same assay, conditions: 48 hours, Cell Titer-Blue; read-out: NB4 LC50

Structure (SMILES)	LC50 (median lethal concentration)
CCCNNC(=O)c1ccc(CNC(=O)c2cc3ccccc3[nH]2)cc1 [LEE15, N-(4-(2-propylhydrazino-1-carbonyl)benzyl)-1H-indole-2-carboxyamide]	> 10000 nM
CCCNNC(=O)c1ccc(CNC(=O)c2cc3cnccc3[nH]2)cc1 [LEE18, N-(4-(2-propylhydrazin-1-carbonyl)benzyl)-1H-pyrrolo[3,2-c]pyridin-2-carboxamide]	1560 nM

Tested on: MV4-11 tumor
Assay: In vivo anti-leukemia activity, MV4-11 tumor bearing model
Conditions: MV4-11 tumor bearing nude mice; 4 mg/kg/d, day 23; panobinostat intraperitoneal

Structure (SMILES)	Relative tumor proliferation rate (T/C %)	Tumor inhibitory rate (TGI %)
Cc1[nH]c2ccccc2c1CCNCc1ccc(/C=C/C(=O)NO)cc1 [Panobinostat]	72.9%	18.3%
CCCNNC(=O)c1ccc(CNC(=O)c2cc3ccccc3[nH]2)cc1 [LEE15, N-(4-(2-propylhydrazino-1-carbonyl)benzyl)-1H-indole-2-carboxyamide]	22.4%	81.3%

Tested on: not listed separately
Assay: Pharmacokinetic properties in mice
Type: in vivo
Conditions: mouse, plasma, po 20 mg/kg single dose

Structure (SMILES)	AUC(0-t)	Tmax
CCCNNC(=O)c1ccc(CNC(=O)c2cc3ccccc3[nH]2)cc1 [LEE15, N-(4-(2-propylhydrazino-1-carbonyl)benzyl)-1H-indole-2-carboxyamide]	128 µg·h/mL	0.25 h

Same assay, conditions: po 20 mg/kg single dose

Structure (SMILES)	Cmax	t½
CCCNNC(=O)c1ccc(CNC(=O)c2cc3ccccc3[nH]2)cc1 [LEE15, N-(4-(2-propylhydrazino-1-carbonyl)benzyl)-1H-indole-2-carboxyamide]	38800 ng/mL	2.58 h

Same assay, conditions: po 20 mg/kg vs iv 5 mg/kg

Structure (SMILES)	F
CCCNNC(=O)c1ccc(CNC(=O)c2cc3ccccc3[nH]2)cc1 [LEE15, N-(4-(2-propylhydrazino-1-carbonyl)benzyl)-1H-indole-2-carboxyamide]	112%

Tested on: cell death
Assay: NMN reversal of cell death caused by compounds (FIG. 4)
Type: cell-based
Conditions: NMN is nicotinamide mononucleotide

Structure (SMILES)	effect of NMN on cell death caused by the compound
CCCNNC(=O)c1ccc(CNC(=O)c2cc3cnccc3[nH]2)cc1 [LEE18, N-(4-(2-propylhydrazin-1-carbonyl)benzyl)-1H-pyrrolo[3,2-c]pyridin-2-carboxamide]	reversal effect

Tested on: not given
Assay: not given
Conditions: po 50 mg/kg, literature (BMC 2007, 21, 184-189); cited from earlier work

Structure (SMILES)	AUClast	Cmax	F	t½
Cc1[nH]c2ccccc2c1CCNCc1ccc(/C=C/C(=O)NO)cc1 [Panobinostat]	0.126 µg·h/mL	116 ng/mL	4.62%	2.9 h

Biological target: HDAC1 (Homo sapiens (Human), UniProt Q13547)
Sequence (Q13547 whole entry, species assumed): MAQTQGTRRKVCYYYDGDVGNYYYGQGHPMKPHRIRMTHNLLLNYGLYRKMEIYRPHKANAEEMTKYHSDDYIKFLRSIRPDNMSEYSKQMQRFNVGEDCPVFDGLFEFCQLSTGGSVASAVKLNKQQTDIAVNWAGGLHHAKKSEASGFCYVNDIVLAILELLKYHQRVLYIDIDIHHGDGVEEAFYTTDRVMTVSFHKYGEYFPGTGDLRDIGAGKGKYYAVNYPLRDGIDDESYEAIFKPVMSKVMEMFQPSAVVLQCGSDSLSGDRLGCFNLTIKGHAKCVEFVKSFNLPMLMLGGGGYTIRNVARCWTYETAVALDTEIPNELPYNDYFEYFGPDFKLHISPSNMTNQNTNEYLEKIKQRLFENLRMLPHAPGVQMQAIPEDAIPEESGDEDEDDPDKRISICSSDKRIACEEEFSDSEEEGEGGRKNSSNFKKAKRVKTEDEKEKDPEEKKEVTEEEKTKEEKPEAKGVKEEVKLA
Assay: Inhibitory activity on HDAC1 (fluorescence enzyme assay)
Conditions: read-out: IC50 HDAC1; mean of three independent experiments

Structure (SMILES)	IC50
CCCNNC(=O)c1ccc(CNC(=O)c2cc3ccccc3[nH]2)cc1 [LEE15, N-(4-(2-propylhydrazino-1-carbonyl)benzyl)-1H-indole-2-carboxyamide]	3.52 nM

Biological target: HDAC2 (Homo sapiens (Human), UniProt Q92769)
Sequence (Q92769 whole entry, species assumed): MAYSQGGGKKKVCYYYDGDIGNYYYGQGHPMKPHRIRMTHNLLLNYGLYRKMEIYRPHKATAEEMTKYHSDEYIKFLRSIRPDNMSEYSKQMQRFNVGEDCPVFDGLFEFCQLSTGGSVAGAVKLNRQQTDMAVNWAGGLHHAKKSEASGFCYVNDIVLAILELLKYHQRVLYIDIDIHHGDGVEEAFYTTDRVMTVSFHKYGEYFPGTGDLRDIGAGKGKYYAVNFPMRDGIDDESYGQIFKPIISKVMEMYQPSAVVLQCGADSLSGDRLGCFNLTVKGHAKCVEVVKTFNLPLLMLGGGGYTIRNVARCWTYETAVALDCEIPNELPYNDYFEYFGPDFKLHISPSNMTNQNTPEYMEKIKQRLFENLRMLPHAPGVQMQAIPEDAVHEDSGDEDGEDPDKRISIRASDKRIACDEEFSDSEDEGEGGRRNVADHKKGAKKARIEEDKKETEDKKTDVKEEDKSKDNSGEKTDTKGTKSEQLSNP
Assay: Inhibitory activity on HDAC2 (fluorescence enzyme assay)
Conditions: read-out: IC50 HDAC2; mean of three independent experiments

Structure (SMILES)	IC50
CCCNNC(=O)c1ccc(CNC(=O)c2cc3ccccc3[nH]2)cc1 [LEE15, N-(4-(2-propylhydrazino-1-carbonyl)benzyl)-1H-indole-2-carboxyamide]	15.1 nM
CCCNNC(=O)c1ccc(CNC(=O)c2cc3cnccc3[nH]2)cc1 [LEE18, N-(4-(2-propylhydrazin-1-carbonyl)benzyl)-1H-pyrrolo[3,2-c]pyridin-2-carboxamide]	37.8 nM

Biological target: HDAC3 (Homo sapiens (Human), UniProt O15379)
Sequence (O15379 whole entry, species assumed): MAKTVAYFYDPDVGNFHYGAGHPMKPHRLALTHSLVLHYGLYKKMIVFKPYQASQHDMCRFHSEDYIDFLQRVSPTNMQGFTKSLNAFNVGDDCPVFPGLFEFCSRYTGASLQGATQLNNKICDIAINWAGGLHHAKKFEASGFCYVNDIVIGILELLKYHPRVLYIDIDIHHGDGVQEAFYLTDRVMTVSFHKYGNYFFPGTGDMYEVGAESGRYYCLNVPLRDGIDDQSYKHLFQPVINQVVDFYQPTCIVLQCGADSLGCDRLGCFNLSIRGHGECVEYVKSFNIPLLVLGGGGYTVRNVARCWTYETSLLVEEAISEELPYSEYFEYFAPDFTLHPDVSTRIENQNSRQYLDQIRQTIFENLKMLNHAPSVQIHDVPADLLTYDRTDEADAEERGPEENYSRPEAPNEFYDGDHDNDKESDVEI
Sequence (Q9Y618 395-489 partner, species assumed): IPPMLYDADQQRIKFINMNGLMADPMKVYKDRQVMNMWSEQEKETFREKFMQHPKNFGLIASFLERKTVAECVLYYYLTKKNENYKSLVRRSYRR
Assay: Inhibitory activity on HDAC3 (fluorescence enzyme assay)
Conditions: read-out: IC50 HDAC3; mean of three independent experiments

Structure (SMILES)	IC50
CCCNNC(=O)c1ccc(CNC(=O)c2cc3ccccc3[nH]2)cc1 [LEE15, N-(4-(2-propylhydrazino-1-carbonyl)benzyl)-1H-indole-2-carboxyamide]	0.383 nM
CCCNNC(=O)c1ccc(CNC(=O)c2cc3cnccc3[nH]2)cc1 [LEE18, N-(4-(2-propylhydrazin-1-carbonyl)benzyl)-1H-pyrrolo[3,2-c]pyridin-2-carboxamide]	0.71 nM
